target: His-tagged recombinant human Gal-3 (hGal-3) (Homo sapiens (Human), UniProt P17931); experiment: Gal-3 HTRF assay (hGal-3 / B-ASF); assay type: binding; conditions: 15 nM hGal-3, 15 nM B-ASF, table after Example 4, read-out: hGal3 IC50
Experimental: ASSAY BUFFER Composition: 25 mM HEPES, 100 mM NaCl, 0.005% Tween 20, 0.05% BSA prepared in sterile water (all reagents from Sigma)
Positive Control: 100% DMSO (1 μl)+His-tagged hGal-3 (20 μL)+B-ASF (20 μl)+Anti-His Terbium Antibody (5 μl)+Strep d2 Antibody (5 μl).
Negative Control: 100% DMSO (1 μl)+His-tagged hGal-3 (20μL)+Anti His Terbium Antibody (5 μl)+Strep d2 Aantibody (5 μl).
PROTOCOL: The Gal-3 assays were performed in 384 white Opti plates in three replicates at room temperature with gentle shaking at 250-300 rpm From the original stocks, […] working stock concentrations of His-tagged recombinant human Gal-3 (hGal-3) and that of B-ASF were prepared. From the working stock, 20 μl of hGal-3 (15 nM) and 20 μl B-ASF (15 nM) were added to the plates. In Negative Control, only hGal-3 was added. A concentration range of 50× working stocks were prepared for the compounds in 100% DMSO. Aliquots of 1 uL of the compounds were added to the wells and pre-incubated with 20 μl hGal-3 per well for 30 minutes Then 20 μl B-ASF were added and incubated for another 1 hour. To detect the signal, 5 μ(final conc. of 1.0 nM) terbium labelled Anti-His antibody was added and incubated for 30 min followed by adding 5 μ(final conc. of 20 nM) Streptavidin d2 and incubation for another 1 hour. The assay signal was detected using HTRF screen protocol (Excitation wavelength=340 nm, emission wavelength=615 nm/665 nm) on Envision 2104 Multilabel Reader. Data analysed using Toolset and Curve Master. Results are reported in the experimental section (IC50 in μM).

His-tagged recombinant human Gal-3 (hGal-3), sequence (P17931 whole entry): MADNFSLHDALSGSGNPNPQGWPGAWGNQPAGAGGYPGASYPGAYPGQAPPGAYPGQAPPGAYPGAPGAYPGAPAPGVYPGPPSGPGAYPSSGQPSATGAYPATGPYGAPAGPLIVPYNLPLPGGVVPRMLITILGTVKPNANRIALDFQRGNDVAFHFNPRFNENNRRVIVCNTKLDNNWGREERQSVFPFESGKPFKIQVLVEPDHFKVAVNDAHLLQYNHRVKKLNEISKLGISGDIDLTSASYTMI

SMILES | IC50
OC[C@H]1O[C@H](Sc2ccc(Cl)c(Cl)c2)[C@H](OCCN2CCOCC2)[C@@H](n2cc(-c3cc(F)c(F)c(F)c3)nn2)[C@H]1O [compound 5, (2R,3R,4S,5R,6R)-6-((3,4-dichlorophenyl)thio)-2-(hydroxymethyl)-5-(2-morpholinoethoxy)-4-(4-(3,4,5-trifluorophenyl)-1H-1,2,3-triazol-1-yl)tetrahydro-2H-pyran-3-ol] | 195 nM

same assay, conditions: 15 nM hGal-3, 15 nM B-ASF, table after Example 20, read-out: hGal3 IC50

SMILES | IC50
O=C(CO[C@@H]1[C@@H](n2cc(-c3cc(F)c(F)c(F)c3)nn2)[C@@H](O)[C@@H](CO)O[C@@H]1Sc1ccc(Cl)c(Cl)c1)N1CC[C@@H](O)C1 [Example 27] | 70 nM
O=C(CO[C@@H]1[C@@H](n2cc(-c3cc(F)c(F)c(F)c3)nn2)[C@@H](O)[C@@H](CO)O[C@@H]1Sc1ccc(Cl)c(Cl)c1)N1CCCC(F)(F)C1 [Example 24] | 150 nM
COCCN(C)C(=O)CO[C@@H]1[C@@H](n2cc(-c3cc(F)c(F)c(F)c3)nn2)[C@@H](O)[C@@H](CO)O[C@@H]1Sc1ccc(Cl)c(Cl)c1 [Example 32] | 700 nM

same assay, conditions: 15 nM hGal-3, 15 nM B-ASF, table after Example 46, read-out: hGal3 IC50

SMILES | IC50
O=C(O)CO[C@@H]1[C@@H](n2cc(-c3ccc(Cl)cc3)nn2)[C@@H](O)[C@@H](CO)O[C@@H]1Sc1ccc(Cl)c(Cl)c1 [Example 50] | 620 nM
O=C(O)CO[C@@H]1[C@@H](n2cc(-c3cc(F)cc(F)c3)nn2)[C@@H](O)[C@@H](CO)O[C@@H]1Sc1ccc(Cl)c(Cl)c1 [Example 52] | 250 nM
O=C(O)CO[C@@H]1[C@@H](n2cc(-c3ccccc3F)nn2)[C@@H](O)[C@@H](CO)O[C@@H]1Sc1ccc(Cl)c(Cl)c1 [Example 51] | 1610 nM
COC(=O)c1ccc(-c2cn([C@H]3[C@@H](O)[C@@H](CO)O[C@H](Sc4ccc(Cl)c(Cl)c4)[C@@H]3OCC(=O)O)nn2)cc1 [Example 56] | 7430 nM
Cc1cccc(-c2cn([C@H]3[C@@H](O)[C@@H](CO)O[C@H](Sc4ccc(Cl)c(Cl)c4)[C@@H]3OCC(=O)O)nn2)c1 [Example 49] | 1340 nM
O=C(O)CO[C@@H]1[C@@H](n2cc(-c3cc(F)ccn3)nn2)[C@@H](O)[C@@H](CO)O[C@@H]1Sc1ccc(Cl)c(Cl)c1 [Example 59] | 5550 nM
O=C(O)CO[C@@H]1[C@@H](n2cc(-c3cccc(F)n3)nn2)[C@@H](O)[C@@H](CO)O[C@@H]1Sc1ccc(Cl)c(Cl)c1 [Example 57] | 310 nM

same assay, conditions: 15 nM hGal-3, 15 nM B-ASF, three replicates, room temperature, read-out: hGal3 IC50

SMILES | IC50
OC[C@H]1O[C@H](Sc2ccc(Cl)c(Cl)c2)C[C@@H](n2cc(-c3cc(F)c(F)c(F)c3)nn2)[C@H]1O [Example 60, (2R,3R,4R,6R)-6-((3,4-dichlorophenyl)thio)-2-(hydroxymethyl)-4-(4-(3,4,5-trifluorophenyl)-1H-1,2,3-triazol-1-yl)tetrahydro-2H-pyran-3-ol] | 2200 nM
COCCO[C@@H]1[C@@H](n2cc(-c3cc(F)c(F)c(F)c3)nn2)[C@@H](O)[C@@H](CO)O[C@@H]1S(=O)(=O)c1ccc(Cl)c(Cl)c1 [Example 12, (2R,3R,4S,5R,6R)-6-((3,4-dichlorophenyl)sulfonyl)-2-(hydroxymethyl)-5-(2-methoxyethoxy)-4-(4-(3,4,5-trifluorophenyl)-1H-1,2,3-triazol-1-yl)tetrahydro-2H-pyran-3-ol] | 130 nM
O=C(O)CO[C@@H]1[C@@H](n2cnc(-c3cccc(F)c3)c2)[C@@H](O)[C@@H](CO)O[C@@H]1Sc1ccc(Cl)c(Cl)c1 [Example 63, 2-(((2R,3R,4S,5R,6R)-2-((3,4-dichlorophenyl)thio)-4-(4-(3-fluorophenyl)-1H-imidazol-1-yl)-5-hydroxy-6-(hydroxymethyl)tetrahydro-2H-pyran-3-yl)oxy)acetic acid] | 1560 nM
CO[C@@H]1[C@@H](n2cc(C(=O)O)nn2)[C@@H](O)[C@@H](CO)O[C@@H]1Sc1ccc(Cl)c(Cl)c1 [Example 42, 1-((2R,3R,4S,5R,6R)-2-((3,4-dichlorophenyl)thio)-5-hydroxy-6-(hydroxymethyl)-3-methoxytetrahydro-2H-pyran-4-yl)-1H-1,2,3-triazole-4-carboxylic acid] | 5000 nM
[O-][N+]1(CCO[C@@H]2[C@@H](n3cc(-c4cc(F)c(F)c(F)c4)nn3)[C@@H](O)[C@@H](CO)O[C@@H]2Sc2ccc(Cl)c(Cl)c2)CCOCC1 [Example 13, 4-(2-(((2R,3R,4S,5R,6R)-2-((3,4-dichlorophenyl)thio)-5-hydroxy-6-(hydroxymethyl)-4-(4-(3,4,5-trifluorophenyl)-1H-1,2,3-triazol-1-yl)tetrahydro-2H-pyran-3-yl)oxy)ethyl)morpholine 4-oxide] | 50 nM
CCO[C@@H]1[C@@H](n2cc(-c3cc(F)c(F)c(F)c3)nn2)[C@@H](O)[C@@H](CO)O[C@@H]1S(=O)(=O)c1ccc(Cl)c(Cl)c1 [Example 10, (2R,3R,4S,5R,6R)-6-((3,4-dichlorophenyl)sulfonyl)-5-ethoxy-2-(hydroxymethyl)-4-(4-(3,4,5-trifluorophenyl)-1H-1,2,3-triazol-1-yl)tetrahydro-2H-pyran-3-ol] | 200 nM
O=C(CO[C@@H]1[C@@H](n2cc(-c3cc(F)c(F)c(F)c3)nn2)[C@@H](O)[C@@H](CO)O[C@@H]1[S@+]([O-])c1ccc(Cl)c(Cl)c1)N1CCS(=O)(=O)CC1 [Example 35, 2-(((2R,3R,4S,5R,6R)-2-((R)-(3,4-dichlorophenyl)sulfinyl)-5-hydroxy-6-(hydroxymethyl)-4-(4-(3,4,5-trifluorophenyl)-1H-1,2,3-triazol-1-yl)tetrahydro-2H-pyran-3-yl)oxy)-1-(1,1-dioxidothiomorpholino)ethan-1-one] | 50 nM
CO[C@@H]1[C@@H](n2cc(-c3cc(F)c(F)c(F)c3)nn2)[C@@H](O)[C@@H](CO)O[C@@H]1S(=O)(=O)c1ccc(Cl)c(Cl)c1 [Example 3, (2R,3R,4S,5R,6R)-6-((3,4-dichlorophenyl)sulfonyl)-2-(hydroxymethyl)-5-methoxy-4-(4-(3,4,5-trifluorophenyl)-1H-1,2,3-triazol-1-yl)tetrahydro-2H-pyran-3-ol] | 112 nM

The remaining lines, values ahead:

IC50 | SMILES
380 nM | CCOC(=O)CO[C@@H]1[C@@H](n2cc(-c3cc(F)c(F)c(F)c3)nn2)[C@@H](O)[C@@H](CO)O[C@@H]1Sc1ccc(Cl)c(Cl)c1 [Example 14, ethyl 2-(((2R,3R,4S,5R,6R)-2-((3,4-dichlorophenyl)thio)-5-hydroxy-6-(hydroxymethyl)-4-(4-(3,4,5-trifluorophenyl)-1H-1,2,3-triazol-1-yl)tetrahydro-2H-pyran-3-yl)oxy)acetate]
150 nM | CC(O[C@@H]1[C@@H](n2cc(-c3cc(F)c(F)c(F)c3)nn2)[C@@H](O)[C@@H](CO)O[C@@H]1Sc1ccc(Cl)c(Cl)c1)C(=O)O (single isomer, unassigned) [Example 38 (isomer-1)]
100 nM | CCO[C@@H]1[C@@H](n2cc(-c3cc(F)c(F)c(F)c3)nn2)[C@@H](O)[C@@H](CO)O[C@@H]1[S+]([O-])c1ccc(Cl)c(Cl)c1 (single isomer, unassigned) [Example 9 (isomer-1)]
100 nM | O=C(O)CO[C@@H]1[C@@H](n2cc(-c3cc(F)c(F)c(F)c3)nn2)[C@@H](O)[C@@H](CO)O[C@@H]1[S+]([O-])c1ccc(Cl)c(Cl)c1 (single isomer, unassigned) [18 (isomer-2)]
230 nM | N#CCO[C@@H]1[C@@H](n2cc(-c3cc(F)c(F)c(F)c3)nn2)[C@@H](O)[C@@H](CO)O[C@@H]1Sc1ccc(Cl)c(Cl)c1 [Example 15, 2-(((2R,3R,4S,5R,6R)-2-((3,4-dichlorophenyl)thio)-5-hydroxy-6-(hydroxymethyl)-4-(4-(3,4,5-trifluorophenyl)-1H-1,2,3-triazol-1-yl)tetrahydro-2H-pyran-3-yl)oxy)acetonitrile]

Source: patent US11072626B2, “Small molecule inhibitors of Galectin-3” (BRISTOL-MYERS SQUIBB COMPANY, priority 2017, dated 2021)
